Source: US9801373B2, “Compounds for alleviating phosphate starvation symptoms in plants” (Commissariat a l'Energie Atomique et aux Energies …, priority 2012, dated 2017)
Entries after “also recorded” stand apart in the source; their conditions may differ.

Tests used:
phosphatase activity = assay: Phosphatase activity on root samples; assay type: in vivo, Arabidopsis thaliana; details: 7-days-old plants, −Pi+PTN1 40 μM, FIG. 4
Method: Soluble proteins were extracted with 50 mM TRIS pH 7.4 and 1 mM DTE (1,4-Dithioerythritol, Sigma, 6892-68-8). The protein concentration was determined by the Bradford methods, using albumin from bovine serum (BSA, Sigma, 9048-46-8) as a standard. The phosphatase activity in solution was determined as previously described by Kolari and Sarjala, (1995), by measuring the release of nitrophenol from 0.6 mM p-nitrophenylphosphate in 50 mM sodium acetate pH 5. Reactions were incubated at 30° C. for […] and were stopped with 10% of Na2CO3, after which the absorbance at 405 nm was measured.

[1] = system: PAP12, PAP17 and PAP22 genes; assay: Expression of acid phosphatase (PAP) genes; assay type: in vivo, Arabidopsis thaliana; details: −Pi
Method: Plant RNA was extracted with the RNeasy kit (QIAGEN, France). For transcriptome data, RNA were analysed by the CATMA technology (Complete Arabidopsis Transcriptome Microarray). For qPCR, poly(dT) cDNA were prepared from 500 ng total RNA with Superscript III reverse transcriptase (Invitrogen, France) and analysed on a LightCycler 480 apparatus (Roche Diagnostics, France) with the SYBR Green I Master kit (Roche Diagnostics, France) according to the manufacturer's instructions. Targets were quantified with specific primer pairs designed with Primer3 website (http://frodo.wi.mit.edu/primer3/) (see Table II below). Biological triplicates were performed for all experiments. Expression levels were normalized using At2g16600, At3g04120, At1g35160 and At1g32050 genes.

lpr1 mutant = assay: Shoot growth of lpr1 mutant; assay type: in vivo, Arabidopsis thaliana; details: −Pi, FIG. 11
Method: In the Pi deficient medium, NaCl (0.5 mM) was used to replace the equivalent amount of sodium provided by NaH2PO4. For controls of the effects of the compounds, 1% of DMSO (Dimethyl sulfoxid, SIGMA, 472301), solvent for the tested compounds, was added. After 2 days at 4° C., the plates were placed in a vertical position and plants were grown in a culture chamber under a 16 h light/8 h dark regime (24/21° C., 150 μE m^−2s^−1). For 4 weeks culture, large plates (24×24 cm) were placed in a horizontal position. Root architecture and aerial part area were quantified using program ImageJ.

[2] = system: lpr1, lpr2 and lpi mutants; assay: Primary root growth of mutants with reduced root sensitivity to Pi starvation; assay type: in vivo, Arabidopsis thaliana; details: 7-days-old plants, PTN1 40 μM, FIG. 8
Text: (§1) A “chemical genetics” approach has been carried out to isolate compounds that inhibit the phosphate (Pi) response in Arabidopsis thaliana. Compounds were screened for their ability to inhibit the expression of a phosphate starvation marker, namely the high affinity Pi transporter PHT1,4 gene. For the screening, the A. thaliana pht1;4-1 line (ecotype Wassilewskija) was chosen (Misson et al., 2004). It contains a T-DNA construct inserted into Pht1;4 gene creating a transcriptional fusion with a GUS reporter gene. For phenotypic analyses, A. thaliana Columbia and various lines derived from this ecotype were used. They are either transgenic lines expressing reporter gene as cycB1::GUS (Colón Carmona et al., 1999), MGD3::LUC, PHT1;4::LUC, At1g73010::LUC or various mutants affecting root response to low Pi such as: pdr2 (Ticconi et al., 2004), lpr1, lpr2 (Svistoonoff et al., 2007), lpi1, lpi2 and lpi3 (Sanchez-Calderon et al., 2006).
(§2) In the Pi deficient medium, NaCl (0.5 mM) was used to replace the equivalent amount of sodium provided by NaH2PO4. For controls of the effects of the compounds, 1% of DMSO (Dimethyl sulfoxid, SIGMA, 472301), solvent for the tested compounds, was added. […] Root architecture and aerial part area were quantified using program ImageJ.

[3] = system: phospholipids / glycolipids; assay: Lipid composition of aerial part; assay type: in vivo, Arabidopsis thaliana
Method: Lipids and anthocyanins were analyzed as previously described by Jouhet (2003) and Ticconi (2001).

starch accumulation = assay: Starch staining with lugol; assay type: in vivo, Arabidopsis thaliana; details: FIG. 10 (D)
Method: Starch staining was performed according to Zakhleniuk et al. (2001). Aerial part of plants was placed 6 h in EtOH 90% before to be iodine stained for 30 min in lugol (lugol solution; Sigma, France) and washed several times in water.

pdr2 and phr1 mutants = assay: Primary root growth of pdr2 and phr1 mutants; assay type: in vivo, Arabidopsis thaliana; details: 40 μM, 9 days after germination, FIG. 7 (E)
Text: as §1, §2

Fe content assay by ICP = assay type: in vivo, Arabidopsis thaliana; details: −Pi+PTN1 40 μM, FIG. 9 (B)
Method: For the quantification of ions content, 50 mg of dry weight of each sample were mineralized in 14% HNO3 using a MarsX microwave system (CEM) for the determination of macro- and microelements by inductively coupled plasma optical emission spectrometry (ICP OES Vista MPX, Varian). Biological triplicates were performed for all experiments.

[4] = Optical density curves of PTN1 with FeCl2; assay type: physicochemical; details: PTN1 40 μM + FeCl2 10 μM, FIG. 9 (A)
[5] = −Pi medium containing PTN1, FIG. 5 (B)

O=c1c(Sc2ccc(Cl)cc2)c(Sc2ccc(Cl)cc2)c1=O [PTN1]
phosphatase activity (phosphatase activity): not altered; also recorded: did not impact the phosphatase activity
expression level of PAP12, PAP17 and PAP22 genes [1]: reduced the expression level
anthocyanins accumulation in leaves of lpr1 (lpr1 mutant): substantially suppressed this accumulation
primary root growth of lpr1 or lpi mutants [2]: no additive effect; also recorded: did not impact the primary root growth
reduction of DGDG content ([3]; Pi-starved plants, aerial part, 10-day-old, FIG. 5 (C)): 27%
glycolipids share in ratio of phospholipids onto glycolipids [3, 5]: 75%
phospholipids share in ratio of phospholipids onto glycolipids [3, 5]: 25%
PC and PE content ([3]; −Pi seedlings, FIG. 5 (C)): partially reverted the effect of −Pi
starch accumulation (starch accumulation): severely attenuated
root growth of pdr2 mutant (pdr2 and phr1 mutants): substantially reverted the root growth defect
root growth restriction of phr1 mutant imposed by −Pi (pdr2 and phr1 mutants): partially alleviated
Fe content in plants (Fe content assay by ICP): did not reduce the Fe content
absorption spectrum of solution containing PTN1 and Fe2+ [4]: identical to the PTN1 control without FeCl2
